We go through 62 compounds from PubChem BioAssay AID1249 (Columbia University Molecular Screening Center, 2008).

The source made the active and inactive calls. No rule for the calls is given here.

Usually IC50 stands for the concentration needed to halve the response being measured.

Assay [1] can be described thus: modifiers of cytoskeleton assembly, confirmation, imaging, high-content imaging, retest and dose response (AID 1249).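 Also: compound exposure lasted 24 h before fixation.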 To be noted: cell-based imaging, cytoskeleton assembly phenotype, high content; cell count; at 10 µM; stronger effect = lower value.
Assay [2] has as its system cell-based imaging, cytoskeleton assembly phenotype, high content. The assay is described as above.

In assay [1], `Cc1ccc(NC2=C/C(=N\S(=O)(=O)c3cccs3)c3ccccc3C2=O)c(C)c1` showed a cell count of 79.8%. Further, the IC50 in assay [2] was > 10 µM (inactive).
Taken in the same sequence, the figures for `CCN(CC)c1ccc2cc(-c3nc4ccccc4[nH]3)c(=O)oc2c1` were 96.6% and > 10 µM (inactive).
For `CCCCCOc1ccc(Br)cc1/C(C)=N/NC1=NCCN1` the same measures were 19.4% and 5.97 µM.
Take `O=C(CS(=O)c1ccc(C(F)(F)F)cc1[N+](=O)[O-])Oc1ccccc1` (centres undefined): the cell count in assay [1] was 94.1%. Further, in assay [2], the IC50 is > 10 µM (inactive).
Taken in the same sequence, the figures for `COc1ccccc1-n1cnc2cc(NCc3cccs3)ccc21` were 31.6% and 3.24 µM.
In turn, `COc1ccc(-c2cc(C(F)(F)F)n3nc(C(=O)Nc4cc(C)on4)cc3n2)cc1OC` yielded a cell count in assay [1] of 92.1%. Further, in assay [2], the IC50 is > 10 µM (inactive).
For `Cc1cc(=O)oc2cc(OCC3CC(c4ccccc4Cl)=NO3)ccc12` (centres undefined) the same measures were 92.5% and > 10 µM (inactive).
For `COc1ccc(CCNc2nnc(Sc3nnnn3-c3ccccc3)s2)cc1OC` the same measures were 32.1% and 1.87 µM.
For `CC1=CC(C)(C)N(S(=O)(=O)c2ccc(C)cc2)c2cc(C)ccc21` the same measures were 90.8% and > 10 µM (inactive).
In turn, `Cc1cc(C)c2nc(SCC(=O)N3CC(=O)Nc4ccccc43)c(C#N)cc2c1` showed a cell count in assay [1] of 51.1%. Also, the IC50 in assay [2] is > 10 µM (inactive).
For `Cc1ccc(-c2nc(NC(=O)c3nn(C)cc3[N+](=O)[O-])sc2C)cc1C` the same measures were 88% and > 10 µM (inactive).
Taken in the same sequence, the figures for `CCSc1nc2ccccc2n1C(=O)/C=C\c1ccc(OC)c(OC)c1` were 111% and > 10 µM (inactive).
For `O=Cc1cc2ccccc2nc1SCc1ccc(Cl)c(Cl)c1` the same measures were 94.3% and > 10 µM (inactive).
In assay [1], `COc1ccc(NS(=O)(=O)c2cc(C)ccc2NC(=O)c2cc(C)oc2C)cc1` returned a cell count of 52%. Moreover, in assay [2], the IC50 was > 10 µM (inactive).
Taken in the same sequence, the figures for `CC(=O)Nc1ccc(S(=O)(=O)NC2(C(F)(F)F)C(=O)Nc3c2c(=O)[nH]c(=O)n3C)cc1` (centres undefined) were 90.8% and > 10 µM (inactive).
Taken in the same sequence, the figures for `COc1ccc(NC(=O)/C(Cl)=C(/Cl)S(=O)Cc2ccccc2)cn1` (centres undefined) were 48.1% and > 10 µM (inactive).
Taken in the same sequence, the figures for `CC1=C([N+](=O)[O-])C(c2cccc(Br)c2)C2=C(N1)c1ccccc1C2=O` (centres undefined) were 30.8% and 2.65 µM.
In assay [1], `N=c1oc2c3c4c(cc2cc1C(=O)Nc1ccccc1)CCCN4CCC3` gave a cell count of 99.4%. In addition, the IC50 in assay [2] is 8.21 µM.
Consider `Cc1c(C(=O)OCC(C)C)[nH]c2c1C(=O)CC(c1ccco1)C2` (centres undefined), for which the cell count in assay [1] came out at 38.8%. For the same compound, the IC50 in assay [2] was > 10 µM (inactive).
Turning to `O=C(N/N=C/C(Br)=C/c1ccccc1)c1n[nH]c2c1CCC2`, the cell count in assay [1] came to 30.8%. Moreover, the IC50 in assay [2] was 5 µM.
For `CSc1nc(N(C)NC(=O)c2cccc(C)c2)c2ccccc2n1` the same measures were 31.6% and > 10 µM (inactive).
For the compound `CCOC(=O)c1[nH]c(C)c(C(=O)N2CCc3ccccc32)c1C`, in assay [1], the cell count is 31.8%. Further, in assay [2], the IC50 was 5 µM.
Taken in the same sequence, the figures for `O=C1CC(c2cc(Br)ccc2F)c2cc3c(cc2N1)CCC3` (centres undefined) were 105% and > 10 µM (inactive).
Compound `CC(/C=N/NC(=O)c1cc(-c2ccncc2)nc2ccccc12)=C\c1ccco1` yielded a cell count in assay [1] of 35.1%. In addition, the 50% inhibitory concentration (IC50) in assay [2] was 4.55 µM.
Taken in the same sequence, the figures for `CCOc1ccccc1C(=O)N1CCN(c2cccc(Cl)c2)CC1` were 36.6% and 1.25 µM.
For `CCN(CC)c1ccc2c(c1)OC(N)=C(C#N)C2c1cccnc1` (centres undefined) the same measures were 33.7% and 0.625 µM.
Taken in the same sequence, the figures for `COc1cc(C2C3=C(Nc4ncnn42)c2ccccc2CC3)cc(OC)c1OC` (centres undefined) were 43.2% and 5 µM.
`N#CC1=C2SCC(O)(c3ccccc3)N2C(=O)CC1c1cccs1` (centres undefined) displayed a cell count in assay [1] of 26.4%. In addition, the IC50 in assay [2] is > 10 µM (inactive).
Taken in the same sequence, the figures for `CCN(CC)c1ccc(-c2nn3c(-c4ccccc4OC)nnc3s2)cc1` were 25.6% and 1.7 µM.
Taken in the same sequence, the figures for `O=C(Nc1nc(-c2ccncc2)cs1)C1COc2ccccc2O1` (centres undefined) were 92.2% and > 10 µM (inactive).
Taken in the same sequence, the figures for `Cn1cc(/C=N/n2cnc3scc(-c4ccc(Cl)cc4)c3c2=O)c2ccccc21` were 60.8% and > 10 µM (inactive).
Regarding `O=C(c1ccc(Br)cc1)c1cc([N+](=O)[O-])ccc1N1CCCCC1`, the cell count in assay [1] was determined as 81.7%. The IC50 in assay [2] is > 10 µM (inactive).
Taken in the same sequence, the figures for `O=C(c1ccco1)N1CCN(C(=O)N2c3ccccc3Sc3ccccc32)CC1` were 42% and > 10 µM (inactive).
Taken in the same sequence, the figures for `CCOC(=O)c1[nH]c(C)c(C(=O)c2cc(F)ccc2F)c1C` were 48.7% and > 10 µM (inactive).
The compound `O=S(=O)(c1ccc2c(c1)C(=NO)c1cc(S(=O)(=O)N3CCCCC3)ccc1-2)N1CCCCC1` displayed a cell count in assay [1] of 126%. The IC50 in assay [2] is > 10 µM (inactive).
Taken in the same sequence, the figures for `N#CC1=C(N)Oc2c(ccc3ccccc23)C1c1cccs1` (centres undefined) were 28.9% and > 10 µM (inactive).
On to `COc1ccc(OC)c(C2C3=C(COC3=O)Nc3cc4c(cc32)OCO4)c1` (centres undefined), for which the cell count in assay [1] turned out to be 102%. For the same compound, in assay [2], the IC50 is > 10 µM (inactive).
Consider `CCOc1ccc(S(=O)(=O)Nc2cc(OC)ccc2OC)cc1`, for which, in assay [1], the cell count was 44.2%. Besides, the IC50 in assay [2] is > 10 µM (inactive).
Taken in the same sequence, the figures for `CCOC(=O)Nc1nc(-c2ccccc2)c(C(=O)c2ccccc2)s1` were 53.7% and > 10 µM (inactive).
Regarding `COc1ccc(NC(=O)/C(Cl)=C(/Cl)S(=O)Cc2ccc(C)cc2)cn1` (centres undefined), the cell count in assay [1] came to 63.4%. Besides, the IC50 in assay [2] was > 10 µM (inactive).
For `Cc1ccc(NC(=O)Cn2nnc(-c3ccccc3NC(=O)c3cccs3)n2)cc1` the same measures were 109% and > 10 µM (inactive).
For `COc1cc(N2CCCC2)c(OC)cc1/C=c1/sc2nc3ccccc3n2c1=O` the same measures were 87.5% and > 10 µM (inactive).
Taken in the same sequence, the figures for `COc1cc2c3nnc(-c4ccc(F)cc4)c-3cn(Cc3ccccc3)c2cc1OC` were 86.3% and > 10 µM (inactive).
In turn, `CC(/C=N/NC(=O)c1cc(-c2ccc(Cl)cc2)nc2ccccc12)=C\c1ccco1` returned a cell count in assay [1] of 115%. Further, the IC50 in assay [2] is > 10 µM (inactive).
For `CN(C)c1ccc(C(=O)c2ccc(N(C)C)c3ccccc23)cc1`, the cell count in assay [1] was 28.2%. The IC50 in assay [2] is 0.599 µM.
`COc1cc(C2C(C#N)=C(C)NC3=C2C(=O)c2ccccc23)cc(OC)c1OC` (centres undefined): in assay [1], the cell count came to 34%. The IC50 in assay [2] is 1.55 µM.
Taken in the same sequence, the figures for `COC(=O)C1CN(C#N)N(c2ccc(Cl)cc2)C12c1ccccc1-c1ccccc12` (centres undefined) were 85.3% and > 10 µM (inactive).
Taken in the same sequence, the figures for `Cc1ccc2[nH]c(-c3ccccc3)cc(=O)c2c1` were 41.3% and > 10 µM (inactive).
Taken in the same sequence, the figures for `Cc1cc(C)c(S(=O)(=O)Nc2ccc3c4c(cccc24)CC3)c(C)c1` were 78.5% and > 10 µM (inactive).
`CCCOC(=O)c1[nH]c2c(c1C)C(=O)CC(c1cccs1)C2` (centres undefined) displayed a cell count in assay [1] of 40.1%. Besides, in assay [2], the IC50 was > 10 µM (inactive).
For `COC(=O)C[C@]1(C(=O)OC)CN(C#N)N(c2ccc(Cl)cc2)C12c1ccccc1-c1ccccc12` the same measures were 82% and > 10 µM (inactive).
With `COc1ccc(-c2c/c(=N\c3nc(-c4ccccc4)c(C)s3)c3ccccc3o2)cc1O`, in assay [1], the cell count came out at 113%. Besides, the IC50 in assay [2] was > 10 µM (inactive).
Taken in the same sequence, the figures for `COc1cc(-c2nnc3n2N=C(c2ccccc2)CS3)cc(OC)c1OC` were 90.7% and > 10 µM (inactive).
Taken in the same sequence, the figures for `CCn1c2ccccc2c2cc(NC(=O)c3cc(OC)c(OC)c(OC)c3)ccc21` were 32.4% and 1.73 µM.
Taken in the same sequence, the figures for `CCC1=Nc2cc(C(=O)NCCCOC)ccc2Sc2ccccc21` were 29.1% and > 10 µM (inactive).
For `O=C(COc1ccccc1-c1ccccc1)N/N=C/c1cccc2ccccc12`, the cell count in assay [1] was 85%. Besides, the IC50 in assay [2] is > 10 µM (inactive).
For `CCN(CC)c1ccc2cc(-c3nc4ccccc4n3C)c(=O)oc2c1` the same measures were 99.7% and > 10 µM (inactive).
Taken in the same sequence, the figures for `O=C(N/N=C/C(Br)=C\c1ccccc1)c1n[nH]c2c1CCC2` were 33.3% and 0.582 µM.
In assay [1], `C=CCSc1nc2ccccc2n1C(=O)/C=C/c1cc(OC)c(OC)c(OC)c1` had a cell count of 102%. Besides, in assay [2], the IC50 was > 10 µM (inactive).
For `CC(C)Oc1ccccc1C1CC(=O)Nc2cc3c(cc21)OCCO3` (centres undefined) the same measures were 88.5% and > 10 µM (inactive).
In assay [1], `Cc1ccc(C(=O)OCn2ncc(Cl)c(Cl)c2=O)cc1` showed a cell count of 1.4%. Also, in assay [2], the IC50 is 3.08 µM.
As to `Cc1ccc(Nc2nc(-c3c(C)nc4ccccn34)cs2)cc1`, in assay [1], the cell count is 31.8%. Besides, the IC50 in assay [2] was 1.37 µM.
